The target of the assay is T1, hPRDM9 (amino acids 195-385) (Homo sapiens, UniProt Q9NQV7).
T1 construct: 1.25 nM hPRDM9 (amino acids 195-385)
T1 sequence (Q9NQV7 195-385): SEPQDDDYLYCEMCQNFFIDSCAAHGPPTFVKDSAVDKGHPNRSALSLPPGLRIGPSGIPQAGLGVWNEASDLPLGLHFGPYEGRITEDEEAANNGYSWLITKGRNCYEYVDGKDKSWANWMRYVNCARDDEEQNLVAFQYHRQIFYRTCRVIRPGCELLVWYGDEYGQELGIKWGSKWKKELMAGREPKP
Nature of the assay: PRDM9 biochemical assay (radiometric, 3[H] methyl transfer from SAM to biotinylated histone H3 peptide). To be noted: 1 nM hPRDM9, 1 μM biotinylated H3(1-25)K4 peptide, 5 μM 3[H]-SAM, 55 μM un-labeled SAM, 25° C., 30 minutes. An outline of the steps:
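Radiometric assay of ³H-methyl transfer to biotinylated H3(1-25)K4 peptide, with final concentrations 1 nM hPRDM9 (195-385), 1 μM peptide, 5 μM ³H-SAM and 55 μM unlabeled SAM. Run in pH 8.5 Tris buffer for 30 min at 25° C, quenched with guanidine-HCl and captured on streptavidin Flashplates. IC50 from four-parameter fit relative to 0.5% DMSO controls.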

Some results are limits rather than exact numbers.

Compound `Cc1cc(N2CC[C@@H]3CN(c4nc(-c5cc(Cl)cc(Cl)c5)no4)C[C@@H]3C2)ccn1` [Compound 1, 3-(3,5-dichlorophenyl)-5-((3aS,7aS)-5-(2-methylpyridin-4-yl)hexahydro-1H-pyrrolo[3,4-c]pyridin-2(3H)-yl)-1,2,4-oxadiazole] displayed an IC50 of 5.16 µM.
As for `Cc1cc(NC2CC23CCN(c2nc(-c4cc(Cl)cc(Cl)c4)no2)C3)ccn1` (stereo not shown) [Compound 157], it took 31 µM to reach half-maximal inhibition (IC50).
In turn, `Cc1cc(NCC2CN(c3nc(-c4cc(Cl)cc(Cl)c4)no3)C2)ccn1` [Compound 49] yielded an IC50 of 40.2 µM.
The compound `Cc1cc(N2CCC3(CCCN(c4nc(-c5cc(Cl)cc(Cl)c5)no4)C3)C2)ccn1` (stereo not shown) [Compound 223] gave an IC50 of 12.1 µM.
The compound `COCCN1CCN(c2nc(-c3cc(OC)cc(OC)c3)no2)CC12CCN(c1ccnc(C)c1)CC2` [Compound 94] registered an IC50 of 0.109 µM.
In turn, `Cc1cc(N2CC3(CCCN(c4ccc5c(Cl)cc(Cl)cc5n4)C3)C2)ccn1` [Compound 134, 5,7-dichloro-2-(2-(2-methylpyridin-4-yl)-2,6-diazaspiro[3.5]nonan-6-yl)quinoline] had an IC50 of 34.6 µM.
`Cc1cc(N2CCC3C(CCN3c3nc(-c4cc(Cl)cc(Cl)c4)no3)C2)ccn1` (stereo not shown) [Compound 218]: half-maximal inhibition (IC50) was put at 35.5 µM.
In the case of `Cc1cc(NC2CCC(O)(CNc3nc(-c4cc(Cl)cc(Cl)c4)no3)CC2)ccn1` (stereo not shown) [Compound 69], half-maximal inhibition (IC50) required 7.04 µM.
As to `Cc1cc(NCC2=CCCN(c3nc(-c4cc(Cl)cc(Cl)c4)no3)C2)ccn1` [Compound 220], the half-maximal inhibitory concentration (IC50) is 9.2 µM.
Compound `Cc1cc(NCC2CC(C)N(c3nc(-c4cc(Cl)cc(Cl)c4)no3)C2)ccn1` (stereo not shown) [Compound 173] yielded an IC50 of 5.5 µM.
`Cc1cc(N2CCC(CCNc3nc(-c4cc(Cl)cc(Cl)c4)no3)CC2)ccn1` [Compound 22] had an IC50 of 18.6 µM.
Next, `Cc1cc(NC[C@H]2CCCN2c2nc(-c3cc(Cl)cc(Cl)c3)no2)ccn1` [Compound 12]: 41.5 µM; `Cc1cc(N2CCC3(CCCN(c4noc(-c5cccc(Cl)c5)n4)C3)CC2)ccn1` [Compound 88]: 0.06 µM; `Cc1cc(N2CCCC(Nc3nc(-c4cc(Cl)cc(Cl)c4)no3)CC2)ccn1` (stereo not shown) [Compound 42]: 35.8 µM.
`Cc1cc(N2CC3(CCCN(c4nc(C5CC5)no4)C3)C2)ccn1` [Compound 146] had an IC50 of at least 50 µM.
With `Cc1cc(N2CC3(CCCN(c4nc(-c5cccc(Br)c5)no4)C3)C2)ccn1` [Compound 117], it took 2 µM to reach half-maximal inhibition (IC50).
Next, `Cc1cc(N2CC3(CCCN(c4ccn(-c5cc(Cl)cc(Cl)c5)n4)C3)C2)ccn1` [Compound 126, 6-(1-(3,5-dichlorophenyl)-1H-pyrazol-3-yl)-2-(2-methylpyridin-4-yl)-2,6-diazaspiro[3.5]nonane]: 11.1 µM; `COc1cc(OC)cc(-c2noc(N3CCC4(CC5CCC(C4)N5c4ccnc(C)c4)C3)n2)c1` (stereo not shown) [Compound 158]: 3.81 µM.
`Cc1cc(N2CC3CCCN(c4nc(-c5cc(Cl)cc(Cl)c5)no4)C3C2)ccn1` (stereo not shown) [Compound 68] showed a 50% inhibitory concentration (IC50) of 2.8 µM.

These data come from patent US20190374526A1, “Substituted Heterocyclic Compounds as Inhibitors of PRDM9” (Merck Sharp & Dohme Corp., priority 2018, published 2019).
